Experimental data: patent US8906925B2, “Pyrido[4,3-B]indoles containing rigid moieties” (Medivation Technologies, Inc., priority 2008, dated 2014)

How the values were obtained:
histamine receptor H1 = histamine receptor H1 (Homo sapiens, UniProt P35367); test: Histamine H1 radioligand binding ([3H]Pyrilamine); details: for inhibition at 1 µM: read-out: Histamine Binding (1 μM) H1, percent inhibition of specific binding, 1 μM
Procedure, shortened: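 Values are percent inhibition of specific [3H]pyrilamine (1.2 nM) binding with compounds at ≤1 μM (1% DMSO vehicle); 180 min incubation at 25 °C, pH 7.4 Tris buffer, on CHO-expressed human H1 receptor; 1 μM pyrilamine defined nonspecific binding, bound ligand counted after filtration.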

[1] = target: human dopamine D2L receptor (Homo sapiens, UniProt P14416); test: Dopamine D2L radioligand binding ([3H]Spiperone); details: percent inhibition of specific binding, compound at 1 μM; for inhibition at 1 µM: read-out: Inhibition of ligand binding, Dopamine D2L
Sequence of human dopamine D2L receptor (P14416 whole entry): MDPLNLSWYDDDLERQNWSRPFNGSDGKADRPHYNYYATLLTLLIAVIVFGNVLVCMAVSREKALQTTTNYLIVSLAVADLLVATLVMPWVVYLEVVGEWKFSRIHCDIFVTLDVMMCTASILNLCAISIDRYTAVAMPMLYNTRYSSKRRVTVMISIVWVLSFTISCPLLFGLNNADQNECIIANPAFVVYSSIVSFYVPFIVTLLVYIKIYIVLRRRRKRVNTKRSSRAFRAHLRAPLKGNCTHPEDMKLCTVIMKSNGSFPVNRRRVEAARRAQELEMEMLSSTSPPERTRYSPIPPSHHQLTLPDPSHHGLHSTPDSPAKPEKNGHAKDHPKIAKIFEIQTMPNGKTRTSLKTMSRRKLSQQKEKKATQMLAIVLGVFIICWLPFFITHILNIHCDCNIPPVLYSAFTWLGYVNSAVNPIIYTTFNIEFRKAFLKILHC
Description: Non-specific binding was estimated in the presence of […] Haloperidol. Receptor proteins were filtered and washed, the filters were then counted to determine [^3H]Spiperone specifically bound. […] Biochemical assay results are presented as the percent inhibition of specific binding in Table 9.

[2] = target: T1, human recombinant adrenergic α2B receptor (Homo sapiens, UniProt P18089); test: Adrenergic α2B radioligand binding ([3H]Rauwolscine); details: percent inhibition of specific binding; compound at 1 μM; read-out: Inhibition of ligand binding, Adrenergic α2B
T1 construct: expressed in transfected cells; host or cells: Chinese hamster ovary (CHO-K1) cells
T1 sequence (P18089 1-450): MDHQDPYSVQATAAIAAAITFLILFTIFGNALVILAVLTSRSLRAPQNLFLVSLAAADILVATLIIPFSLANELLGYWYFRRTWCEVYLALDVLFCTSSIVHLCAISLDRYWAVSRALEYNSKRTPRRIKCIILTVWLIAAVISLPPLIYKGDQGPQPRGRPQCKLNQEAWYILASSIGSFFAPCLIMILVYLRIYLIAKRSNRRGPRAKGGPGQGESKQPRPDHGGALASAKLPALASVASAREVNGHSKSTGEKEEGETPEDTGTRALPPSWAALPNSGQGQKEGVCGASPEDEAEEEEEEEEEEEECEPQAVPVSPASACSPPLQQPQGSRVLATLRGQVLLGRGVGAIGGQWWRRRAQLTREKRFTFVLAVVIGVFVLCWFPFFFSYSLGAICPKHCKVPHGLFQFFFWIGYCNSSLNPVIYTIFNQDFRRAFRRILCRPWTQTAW
Experimental: To evaluate in radioligand binding assays the activity of compounds of the invention, human recombinant adrenergic α2B receptor expressed in Chinese hamster ovary (CHO-K1) cells (Uhlen S et al. Eur J Pharmacol. 343(1):93, 1998) in a modified Tris-HCl buffer (50 mM Tris-HCl, pH 7.4, 12.5 mM MgCl2, 1 mM EDTA, 0.2% BSA) was used. Compounds of the invention were incubated with 2.5 nM [^3H]Rauwolscine for 60 min. at 25° C. Non-specific binding was estimated in the presence of 10 μM Prozosin. Receptor proteins were filtered and washed, the filters were then counted to determine [^3H]Rauwolscine specifically bound. Compounds were screened at 1 μM or lower, using 1% DMSO as vehicle. Biochemical assay results are presented as the percent inhibition of specific binding in Table 9.

[3] = target: T2, human recombinant serotonin (5-Hydroxytryptamine) 5-HT2C receptor (Homo sapiens, UniProt P28335); test: Serotonin 5-HT2C radioligand binding ([3H]Mesulergine); details: read-out: Inhibition of ligand binding, Serotonin 5-HT2C (percent inhibition of specific binding); for inhibition at 1 µM: compound at 1 μM; for inhibition at 0.1 µM: compound at 0.1 μM
T2 construct: expressed in transfected cells; host or cells: Chinese hamster ovary (CHO-K1) cells
T2 sequence (P28335 33-458): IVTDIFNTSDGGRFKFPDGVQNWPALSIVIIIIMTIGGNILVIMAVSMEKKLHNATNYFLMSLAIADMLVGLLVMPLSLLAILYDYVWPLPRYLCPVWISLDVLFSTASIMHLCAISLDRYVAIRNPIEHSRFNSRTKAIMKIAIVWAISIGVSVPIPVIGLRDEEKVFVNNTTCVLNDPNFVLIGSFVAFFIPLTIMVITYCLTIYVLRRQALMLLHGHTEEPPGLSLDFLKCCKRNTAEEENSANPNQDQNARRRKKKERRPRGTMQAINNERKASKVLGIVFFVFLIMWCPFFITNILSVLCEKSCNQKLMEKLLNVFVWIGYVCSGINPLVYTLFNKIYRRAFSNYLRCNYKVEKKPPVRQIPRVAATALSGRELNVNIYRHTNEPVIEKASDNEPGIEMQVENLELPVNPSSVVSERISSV
Procedure, shortened: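 Compounds tested at 1 μM or lower (1% DMSO vehicle) for displacement of 1 nM [3H]Mesulergine over 60 min at 25° C. Specific binding determined by filtration counting, with 1 μM Mianserin defining non-specific binding; values are percent inhibition.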

Sequence of histamine receptor H1 (P35367 whole entry): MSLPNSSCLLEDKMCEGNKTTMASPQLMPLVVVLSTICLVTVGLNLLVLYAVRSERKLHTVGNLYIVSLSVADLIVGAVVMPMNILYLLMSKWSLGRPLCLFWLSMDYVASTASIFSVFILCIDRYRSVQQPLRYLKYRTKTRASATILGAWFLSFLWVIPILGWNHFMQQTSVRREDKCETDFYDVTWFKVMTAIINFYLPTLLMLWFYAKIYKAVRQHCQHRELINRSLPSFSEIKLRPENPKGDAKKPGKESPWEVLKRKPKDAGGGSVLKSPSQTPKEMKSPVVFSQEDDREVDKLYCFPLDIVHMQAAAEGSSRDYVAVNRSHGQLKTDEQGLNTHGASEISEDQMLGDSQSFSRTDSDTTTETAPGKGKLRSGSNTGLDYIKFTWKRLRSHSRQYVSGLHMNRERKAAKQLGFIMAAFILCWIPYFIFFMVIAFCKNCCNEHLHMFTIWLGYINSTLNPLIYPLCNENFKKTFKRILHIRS

C=C(Cn1c2c(c3cc(Cl)ccc31)CN(C)CC2)c1cccnc1 [Compound 133, 8-chloro-2,3,4,5-tetrahydro-2-methyl-5-(2-(pyridin-3-yl)allyl)-1H-pyrido[4,3-b]indole]
inhibition at 1 µM (histamine receptor H1): 101%
inhibition at 1 µM [1]: 29%
inhibition at 1 µM [2]: 103%
inhibition at 1 µM [3]: 96%

C=C(Cn1c2c(c3cc(Cl)ccc31)CN(C)CC2)c1ccc(C)nc1 [Compound 136, 8-chloro-2,3,4,5-tetrahydro-2-methyl-5-(2-(6-methylpyridin-3-yl)allyl)-1H-pyrido[4,3-b]indole]
inhibition at 1 µM (histamine receptor H1): 99%
inhibition at 1 µM [1]: 54%
inhibition at 1 µM [2]: 90%
inhibition at 1 µM [3]: 93%

C=C(Cn1c2c(c3cc(Cl)ccc31)CN(C)CC2)c1ccc(OC)c(F)c1 [Compound 140, 8-chloro-5-(2-(3-fluoro-4-methoxyphenyl)allyl)-2,3,4,5-tetrahydro-2-methyl-1H-pyrido[4,3-b]indole]
inhibition at 1 µM (histamine receptor H1): 98%
inhibition at 1 µM [1]: 57%
inhibition at 1 µM [2]: 106%
inhibition at 1 µM [3]: 98%

Cc1ccc2c(c1)c1c(n2CC(O)(c2ccc(F)cc2)C2CCCCC2)CCN(C)C1 (stereo not drawn) [Compound 171, 1-cyclohexyl-2-(2,8-dimethyl-3,4-dihydro-1H-pyrido[4,3-b]indol-5(2H)-yl)-1-(4-fluorophenyl)ethanol]
inhibition at 1 µM (histamine receptor H1): 13%
inhibition at 1 µM [1]: 12%
inhibition at 1 µM [2]: 86%
inhibition at 0.1 µM [3]: 51%
inhibition at 1 µM [3]: 98%

Cc1ccc2c(c1)c1c(n2CC(O)c2ccc(F)cc2)CCN(C)C1 (stereo not drawn) [Compound 172, 2-(2,8-dimethyl-3,4-dihydro-1H-pyrido[4,3-b]indol-5(2H)-yl)-1-(4-fluorophenyl)ethanol]
inhibition at 1 µM (histamine receptor H1): 95%
inhibition at 1 µM [1]: 36%
inhibition at 1 µM [2]: 104%
inhibition at 1 µM [3]: 97%

COc1ccc(C(C)(O)Cn2c3c(c4cc(C)ccc42)CN(C)CC3)cc1F (stereo not drawn) [Compound 173, 1-(2,8-dimethyl-3,4-dihydro-1H-pyrido[4,3-b]indol-5(2H)-yl)-2-(3-fluoro-4-methoxyphenyl)propan-2-ol]
inhibition at 1 µM (histamine receptor H1): 91%
inhibition at 1 µM [1]: 32%
inhibition at 1 µM [2]: 98%
inhibition at 1 µM [3]: 98%

COc1ccc(C(C)(O)Cn2c3c(c4cc(C)ccc42)CN(C)CC3)cc1 (stereo not drawn) [Compound 174, 1-(2,8-dimethyl-3,4-dihydro-1H-pyrido[4,3-b]indol-5(2H)-yl)-2-(4-methoxyphenyl)propan-2-ol]
inhibition at 1 µM (histamine receptor H1): 34%
Inhibition of ligand binding, Dopamine D2L [1]: 34/34%
inhibition at 1 µM [1]: 34%
inhibition at 1 µM [2]: 88%
inhibition at 0.1 µM [3]: 96%
inhibition at 1 µM [3]: 95%

CCC(O)(Cn1c2c(c3cc(C)ccc31)CN(C)CC2)c1ccc(F)cc1 (stereo not drawn) [Compound 175, 1-(2,8-dimethyl-3,4-dihydro-1H-pyrido[4,3-b]indol-5(2H)-yl)-2-(4-fluorophenyl)butan-2-ol]
inhibition at 1 µM (histamine receptor H1): 71%
inhibition at 1 µM [1]: 24%
inhibition at 1 µM [2]: 96%
inhibition at 1 µM [3]: 95%

CN1CCc2c(c3cc(Cl)ccc3n2CC(O)(c2ccc(F)cc2)C2CCC2)C1 (stereo not drawn) [Compound 177, 2-(8-chloro-2-methyl-3,4-dihydro-1H-pyrido[4,3-b]indol-5(2H)-yl)-1-cyclobutyl-1-(4-fluorophenyl)ethanol]
inhibition at 1 µM (histamine receptor H1): 83%
inhibition at 1 µM [1]: 33%
inhibition at 1 µM [2]: 94%
inhibition at 1 µM [3]: 95%

CCCCC(O)(Cn1c2c(c3cc(Cl)ccc31)CN(C)CC2)c1ccc(F)cc1 (stereo not drawn) [Compound 178, 1-(8-chloro-2-methyl-3,4-dihydro-1H-pyrido[4,3-b]indol-5(2H)-yl)-2-(4-fluorophenyl)hexan-2-ol]
inhibition at 1 µM (histamine receptor H1): 30%
inhibition at 1 µM [1]: 30%
inhibition at 1 µM [2]: 79%
inhibition at 1 µM [3]: 95%

Cc1ccc2c(c1)c1c(n2CC(O)c2ccncc2)CCN(C)C1 (stereo not drawn) [Compound 180, 2-(2,8-dimethyl-3,4-dihydro-1H-pyrido[4,3-b]indol-5(2H)-yl)-1-(pyridin-4-yl)ethanol]
inhibition at 1 µM (histamine receptor H1): 84%
inhibition at 1 µM [1]: 10%
inhibition at 1 µM [2]: 105%
inhibition at 1 µM [3]: 74%

Cc1ccc2c(c1)c1c(n2/C=C/c2ccccc2)CCN(C)C1 [Compound 202, (E)-2,8-dimethyl-5-styryl-2,3,4,5-tetrahydro-1H-pyrido[4,3-b]indole]
inhibition at 1 µM (histamine receptor H1): 100%
inhibition at 1 µM [1]: 83%
inhibition at 1 µM [2]: 98%
inhibition at 1 µM [3]: 101%

CN1CCc2c(c3cc(Cl)ccc3n2/C=C(\c2ccc(F)cc2)C2CC2)C1 [Compound 203, (Z)-8-chloro-5-(2-cyclopropyl-2-(4-fluorophenyl)vinyl)-2-methyl-2,3,4,5-tetrahydro-1H-pyrido[4,3-b]indole]
Histamine Binding (1 μM) H1, percent inhibition of specific binding (histamine receptor H1): 72%
inhibition at 1 µM (histamine receptor H1): 64%
Inhibition of ligand binding, Dopamine D2L ([1]; 1 µM): 78%
inhibition at 1 µM [1]: 72%
inhibition at 1 µM [2]: 108%
inhibition at 0.1 µM [3]: 101%
inhibition at 1 µM [3]: 98%

C/C=C/C(=C\n1c2c(c3cc(Cl)ccc31)CN(C)CC2)c1ccc(F)cc1 [Compound 204, 8-chloro-5-((1E,3E)-2-(4-fluorophenyl)penta-1,3-dienyl)-2-methyl-2,3,4,5-tetrahydro-1H-pyrido[4,3-b]indole]
inhibition at 1 µM (histamine receptor H1): 55%
inhibition at 1 µM [1]: 87%
inhibition at 1 µM [2]: 86%
inhibition at 1 µM [3]: 102%

C/C(=C\n1c2c(c3ccccc31)CN(C)CC2)c1ccc(F)cc1 [Compound 205, (E)-5-(2-(4-fluorophenyl)prop-1-enyl)-2-methyl-2,3,4,5-tetrahydro-1H-pyrido[4,3-b]indole]
Histamine Binding (1 μM) H1, percent inhibition of specific binding (histamine receptor H1): 39%
inhibition at 1 µM (histamine receptor H1): 31%
Inhibition of ligand binding, Dopamine D2L ([1]; 1 µM): 99%
inhibition at 1 µM [1]: 98%
inhibition at 1 µM [2]: 101%
inhibition at 0.1 µM [3]: 96%
inhibition at 1 µM [3]: 100%

CN1CCc2c(c3cc(Cl)ccc3n2/C=C(/c2ccc(F)cc2)C2CCC2)C1 [Compound 206, (E)-8-chloro-5-(2-cyclobutyl-2-(4-fluorophenyl)vinyl)-2-methyl-2,3,4,5-tetrahydro-1H-pyrido[4,3-b]indole]
inhibition at 1 µM (histamine receptor H1): 76%
inhibition at 1 µM [1]: 76%
inhibition at 1 µM [2]: 89%
inhibition at 1 µM [3]: 98%

CNC(=O)C/C(=C\n1c2c(c3cc(C)ccc31)CN(C)CC2)c1ccc(F)cc1 [Compound 207, (E)-4-(2,8-dimethyl-3,4-dihydro-1H-pyrido[4,3-b]indol-5(2H)-yl)-3-(4-fluorophenyl)-N-methylbut-3-enamide]
inhibition at 1 µM (histamine receptor H1): 15%
inhibition at 1 µM [1]: 12%
inhibition at 1 µM [2]: 80%
inhibition at 1 µM [3]: 97%

CCCC/C(=C\n1c2c(c3cc(Cl)ccc31)CN(C)CC2)c1ccc(F)cc1 [Compound 208, (E)-8-chloro-5-(2-(4-fluorophenyl)hex-1-enyl)-2-methyl-2,3,4,5-tetrahydro-1H-pyrido[4,3-b]indole]
inhibition at 1 µM (histamine receptor H1): 64%
inhibition at 1 µM [1]: 78%
inhibition at 1 µM [2]: 103%
inhibition at 1 µM [3]: 102%
